The numbers were not newly measured in US20110015182A1, “NOVEL CARBAMATE AMINO ACID AND PEPTIDE PRODRUGS OF OPIOIDS AND USES THEREOF” (priority 2009, published 2011), which cites them from elsewhere.

The conditions of data set [1]: concurrent oral administration with various opioids; Linn and Steinbrook (2007).
The conditions of data set [2]: Norbury et al. (1983).

In the case of `C[C@H]1CN(C[C@H](Cc2ccccc2)C(=O)NCC(=O)O)CC[C@@]1(C)c1cccc(O)c1` [alvimopan], in data set [1], the “adverse GI effects of opioids (constipation, nausea and vomiting)” value was “markedly reduce”. Consider `CCC1(c2cccc(O)c2)CCCCN(C)C1` (centres unmarked) [meptazinol], for which the “range of observed oral bioavailabilities” value in data set [2] was 2-20%.
